The values that follow come from patent US8343959B2, “N-phenyl-(piperazinyl or homopiperazinyl)-benzenesulfonamide or benzenesulfonyl-phenyl-(piperazine or homopiperazine) compounds suitable for treating disorders that respond to modulation of the serotonin 5-HT6 receptor” (Abbott GmbH & Co. KG, priority 2009, dated 2013).

Molecules are shown by their SMILES. Structures can show the parent of a compound that is named as a salt.

For orientation: Ki means a measure of affinity in units of concentration, obtained from inhibition or displacement.

T1 sequence (P50406 whole entry): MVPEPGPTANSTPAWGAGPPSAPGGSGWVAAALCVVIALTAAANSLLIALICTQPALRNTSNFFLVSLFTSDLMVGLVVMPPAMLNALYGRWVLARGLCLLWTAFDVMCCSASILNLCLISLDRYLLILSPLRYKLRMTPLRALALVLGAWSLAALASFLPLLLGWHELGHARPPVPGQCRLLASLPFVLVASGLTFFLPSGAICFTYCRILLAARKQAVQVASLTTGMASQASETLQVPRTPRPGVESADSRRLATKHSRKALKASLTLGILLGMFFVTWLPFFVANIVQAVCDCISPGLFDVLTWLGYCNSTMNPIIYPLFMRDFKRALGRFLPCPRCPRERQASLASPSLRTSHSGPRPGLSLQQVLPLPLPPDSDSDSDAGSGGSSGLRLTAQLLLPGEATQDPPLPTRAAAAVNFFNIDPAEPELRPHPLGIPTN

One experiment addresses T1, h-5-HT6 receptor (Homo sapiens, UniProt P50406).
T1 construct: expressed in transfected cells
Put plainly: 5-HT6 receptor binding assay (displacement of [3H]-LSD).
Conditions: not given
How it is done: Displacement of Radioligands Binding to The Following Cloned Human Receptors
Cells from stable clonal cell lines expressing the corresponding receptor (5-HT6, α1-adrenergic, dopamine D2 or histamine H1 receptors) were washed with PBS (w/o Ca^++, Mg^++) and harvested in PBS with 0.02% EDTA. The cells were collected by centrifugation at 500 g for 10 min. at 4° C., washed with PBS and centrifuged (500 g, 10 min. 4° C.). The pellets were stored at −80° C. until use. For membrane preparation, the thawed cell pellet was resuspended in ice-cold sucrose buffer (0.25 M sucrose, 10 mM Hepes (pH 7.4), 1 mM Phenylmethylsulfonyl fluoride (PMSF) in DMSO, 5 μg/ml Pepstatin-A, 3 mM EDTA, 0.025% Bacitracin) and homogenized with a Branson Sonifier W-250 (Settings: Timer 4; Output Control 3; Duty Cycle constant; 2 to 3 cycles). Cell disruption was checked with the aid of a microscope. Remaining unbroken cells were pelleted at 1.000 g for 10 min. at 4° C. The sucrose buffer supernatant was then centrifuged at 60.000 g for 1 h at 4° C. (Beckman Ultrazentrifuge XL 80). The pellet was resuspended in 30 ml ice-cold Tris buffer (20 mM TRIS (pH 7.4), 5 μg/ml Pepstatin A, 0.1 mM PMSF, 3 mM EDTA) by pipetting through a 10 ml serological pipet and centrifuged for 1 h at 4° C. at 60.000 g. A final resuspension was performed in a small volume of ice-cold Tris buffer (see above) by pressing through a serological pipet followed by ultrasonic treatment with a Branson Sonifier W-250 (Settings: Timer 1; Output Control 3; Duty Cycle constant; 1 cycle). Protein concentration was determined (BCA-Kit; Pierce) and aliquots stored at −80° C. or in liquid nitrogen for long-term storage.
All receptor binding experiments were carried out in the corresponding assay buffer in a total volume of 200 μl in the presence of various concentrations of test compound (10^−5 M to 10^−9 M, tenfold serial dilution, duplicate determinations). The assays were terminated by filtration on polyethylenimine (PEI 0.1% or 0.3%) presoaked Packard Unifilter Plates (GF/C or GF/B) with a Tomtec Machin U 96 well-plate harvester. After the plates had been dried for 2 h at 55° C. in a drying chamber scintillation cocktail (BetaPlate Scint; PerkinElmer) was added. Radioactivity was measured in a Microbeta Trilux two hours after the addition of the scintillation mixture. Data derived from liquid scintillation counting were analysed by iterative non-linear regression analysis with the use of the Statistical Analysis System (SAS): a program similar to “LIGAND” as described by Munson and Rodbard (Analytical Biochemistry 107, 220-239 (1980).
HEK293 cells stably expressing the h-5-HT6 receptor (NCBI Reference Sequence XM 001435) were cultured in RPMI1640 medium supplemented with 25 mM HEPES, 10% fetal calf serum and 1-2 mM glutamine. The membrane preparation was performed as described in section 1. […] Non-specific binding was defined with 1 μM methiothepin. The binding reaction was carried out for 3.5 h at room temperature. During the incubation, the plates were shaken on a plate shaker at 100 rpm and terminated by filtration on Packard Unifilter GF/C (0.1% PEI) plates, followed by 2 wash cycles with ice-cold 50 mM Tris-HCl, 5 mM CaCl2.
Data derived from liquid scintillation counting were analyzed by iterative non-linear regression analysis with the use of the Statistical Analysis System (SAS): a program similar to “LIGAND” as described by Munson and Rodbard (Anal. Biochem. 1980, 107, 220-239). Fitting was performed according to formulae described by Feldman (Anal. Biochem. 1972, 48, 317-338). IC50, nH and Ki values were expressed as geometrical mean.
(Loss of bound radioactivity is the signal in a displacement assay; it reports binding, not function.)
Consider `Cc1ccc(S(=O)(=O)Nc2cccc(OC(F)F)c2)cc1N1CCNCC1` [Example 1, N-(3-Difluoromethoxy-phenyl)-4-methyl-3-piperazin-1-yl-benzenesulfonamide hydrochloride], for which the Ki is below 10 nM.
Still for that read-out and setting: for `Cc1ccc(S(=O)(=O)Nc2ccc(OC(F)F)cc2)cc1N1CCNCC1` [Example 7, N-(4-Difluoromethoxy-phenyl)-4-methyl-3-piperazin-1-yl-benzenesulfonamide hydrochloride] the value was below 50 nM.
Still for that read-out and setting: with `Cc1ccc(S(=O)(=O)Nc2ccccc2OC(F)F)cc1N1CCNCC1` [Example 17, N-(2-Difluoromethoxy-phenyl)-4-methyl-3-piperazin-1-yl-benzenesulfonamide hydrochloride] the figure was below 10 nM.

Still in this experiment, the particulars now being: membranes of HEK293 cells expressing h-5-HT6 receptor, 1 nM [3H]-LSD; read-out: Ki (5HT6).
As for `Cc1ccc(S(=O)(=O)Nc2ccccc2OC(F)F)cc1N1CCN(C)CC1` [Example 5, N-(2-Difluoromethoxy-phenyl)-4-methyl-3-(4-methyl-piperazin-1-yl)-benzenesulfonamide hydrochloride], the Ki was below 50 nM.
The same measure, in the same setting: for `Cc1ccc(NS(=O)(=O)c2ccc(C)c(N3CCNCC3)c2)cc1OC(F)F` [Example 6, N-(3-Difluoromethoxy-4-methyl-phenyl)-4-methyl-3-piperazin-1-yl-benzene-sulfonamide hydrochloride] the value was below 50 nM.
The same measure, in the same setting: for `Cc1ccc(S(=O)(=O)Nc2cccc3c2OC(F)(F)O3)cc1N1CCNCC1` [Example 8, N-(2,2-Difluoro-benzo[1,3]dioxol-4-yl)-4-methyl-3-piperazin-1-yl-benzenesulfonamide hydrochloride] the value was below 500 nM.
For `Cc1ccc(S(=O)(=O)N(CC2CC2)c2ccccc2OC(F)F)cc1N1CCNCC1` [Example 9, N-Cyclopropylmethyl-N-(2-difluoromethoxy-phenyl)-4-methyl-3-piperazin-1-yl-benzenesulfonamide hydrochloride], the Ki is below 500 nM.
On the same count and under the same terms, for `Cc1ccc(S(=O)(=O)N(CC2CC2)c2cccc(OC(F)F)c2)cc1N1CCNCC1` [Example 10, N-Cyclopropylmethyl-N-(3-difluoromethoxy-phenyl)-4-methyl-3-piperazin-1-yl-benzenesulfonamide hydrochloride] the value was below 50 nM; for `CCCN(c1ccccc1OC(F)F)S(=O)(=O)c1ccc(C)c(N2CCNCC2)c1` [Example 11, N-(2-Difluoromethoxy-phenyl)-4-methyl-3-piperazin-1-yl-N-propyl-benzene-sulfonamide hydrochloride], below 500 nM; for `CCCN(c1cccc(OC(F)F)c1)S(=O)(=O)c1ccc(C)c(N2CCNCC2)c1` [Example 12, N-(3-Difluoromethoxy-phenyl)-4-methyl-3-piperazin-1-yl-N-propyl-benzenesulfonamide hydrochloride], below 50 nM.
The same measure, in the same setting: with `CCN(c1cccc(OC(F)F)c1)S(=O)(=O)c1ccc(C)c(N2CCNCC2)c1` [Example 13, N-(3-Difluoromethoxy-phenyl)-N-ethyl-4-methyl-3-piperazin-1-yl-benzene sulfonamide hydrochloride] the figure was below 50 nM; with `Cc1ccc(S(=O)(=O)N(C)c2cccc(OC(F)F)c2)cc1N1CCNCC1` [Example 14, N-(3-Difluoromethoxy-phenyl)-4,N-dimethyl-3-piperazin-1-yl-benzenesulfonamide hydrochloride], below 100 nM; with `CCN(c1ccccc1OC(F)F)S(=O)(=O)c1ccc(C)c(N2CCNCC2)c1` [Example 15, N-(2-Difluoromethoxy-phenyl)-N-ethyl-4-methyl-3-piperazin-1-yl-benzene sulfonamide hydrochloride], below 500 nM.
Still for that read-out and setting: with `Cc1ccc(S(=O)(=O)N(C)c2ccccc2OC(F)F)cc1N1CCNCC1` [Example 16, N-(2-Difluoromethoxy-phenyl)-N-methyl-4-methyl-3-piperazin-1-yl-benzene sulfonamide hydrochloride] the figure was below 500 nM; with `COc1ccc(S(=O)(=O)Nc2ccc(C)c(OC(F)F)c2)cc1N1CCNCC1` [Example 18, N-(3-Difluoromethoxy-4-methyl-phenyl)-4-methoxy-3-piperazin-1-yl-benzene-sulfonamide hydrochloride], below 10 nM; with `COc1ccc(S(=O)(=O)Nc2cccc(OC(F)F)c2)cc1N1CCNCC1` [Example 24, N-(3-Difluoromethoxy-phenyl)-4-methoxy-3-piperazin-1-yl-benzenesulfonamide hydrochloride], below 10 nM.
`COc1ccc(NS(=O)(=O)c2ccc(OC)c(N3CCNCC3)c2)cc1OC(F)F` [Example 25, N-(3-Difluoromethoxy-4-methoxy-phenyl)-4-methoxy-3-piperazin-1-yl-benzenesulfonamide hydrochloride]: the Ki was below 10 nM.
Regarding `COc1ccc(S(=O)(=O)Nc2ccccc2OC(F)F)cc1N1CCNCC1` [Example 26, N-(2-Difluoromethoxy-phenyl)-4-methoxy-3-piperazin-1-yl-benzenesulfonamide hydrochloride], the inhibitory constant (Ki) was below 10 nM.
With `COc1ccc(S(=O)(=O)N(C)c2ccccc2OC(F)F)cc1N1CCNCC1` [Example 27, N-(2-Difluoromethoxy-phenyl)-4-methoxy-N-methyl-3-piperazin-1-yl-benzenesulfonamide hydrochloride], the Ki was below 50 nM.
As for `COc1ccc(N(C)S(=O)(=O)c2ccc(OC)c(N3CCNCC3)c2)cc1OC(F)F` [Example 28, N-(3-Difluoromethoxy-4-methoxy-phenyl)-4-methoxy-N-methyl-3-piperazin-1-yl-benzenesulfonamide hydrochloride], the Ki was below 50 nM.
For the compound `CCN(c1cccc(OC(F)F)c1)S(=O)(=O)c1ccc(OC)c(N2CCNCC2)c1` [Example 29, N-(3-Difluoromethoxy-phenyl)-N-ethyl-4-methoxy-3-piperazin-1-yl-benzenesulfonamide hydrochloride], the Ki was below 10 nM.
On the same count and under the same terms, for `CCN(c1ccc(OC)c(OC(F)F)c1)S(=O)(=O)c1ccc(OC)c(N2CCNCC2)c1` [Example 30, N-(3-Difluoromethoxy-4-methoxy-phenyl)-N-ethyl-4-methoxy-3-piperazin-1-yl-benzenesulfonamide hydrochloride] the value was below 10 nM.
As for `CCN(c1ccccc1OC(F)F)S(=O)(=O)c1ccc(OC)c(N2CCNCC2)c1` [Example 31, N-(2-Difluoromethoxy-phenyl)-N-ethyl-4-methoxy-3-piperazin-1-yl-benzenesulfonamide hydrochloride], the Ki is below 50 nM.
On to `COc1ccc(S(=O)(=O)N(C)c2cccc(OC(F)F)c2)cc1N1CCNCC1` [Example 32, N-(3-Difluoromethoxy-phenyl)-4-methoxy-N-methyl-3-piperazin-1-yl-benzenesulfonamide hydrochloride], for which the Ki is below 10 nM.
Same read-out and setting: with `CCCN(c1ccc(OC)c(OC(F)F)c1)S(=O)(=O)c1ccc(OC)c(N2CCNCC2)c1` [Example 33, N-(3-Difluoromethoxy-4-methoxy-phenyl)-4-methoxy-3-piperazin-1-yl-N-propyl-benzenesulfonamide hydrochloride] the figure was below 10 nM; with `CCCN(c1cccc(OC(F)F)c1)S(=O)(=O)c1ccc(OC)c(N2CCNCC2)c1` [Example 34, N-(3-Difluoromethoxy-phenyl)-4-methoxy-3-piperazin-1-yl-N-propyl-benzenesulfonamide hydrochloride], below 10 nM; with `COc1ccc(S(=O)(=O)Nc2cccc(OC(F)F)c2)cc1N1CCN(C)CC1` [Example 35, N-(3-Difluoromethoxy-phenyl)-4-methoxy-3-(4-methyl-piperazin-1-yl)-benzenesulfonamide hydrochloride], below 10 nM.
